Source: patent US20260138961A1, “MODULATORS OF MITOCHONDRIAL DNA REPLICATION” (Pretzel Therapeutics, Inc., priority 2022, published 2026)

target: T1, POLγA:A467T (Homo sapiens, UniProt P54098, A467T); test: DNA polymerization assay, POLγA:A467T mutant; type: biochemical; details: A467T AC50, stimulation of polymerase activity, primed M13mp18 ssDNA, 37° C. 2 hours
T1 sequence (P54098 1-1239 A467T): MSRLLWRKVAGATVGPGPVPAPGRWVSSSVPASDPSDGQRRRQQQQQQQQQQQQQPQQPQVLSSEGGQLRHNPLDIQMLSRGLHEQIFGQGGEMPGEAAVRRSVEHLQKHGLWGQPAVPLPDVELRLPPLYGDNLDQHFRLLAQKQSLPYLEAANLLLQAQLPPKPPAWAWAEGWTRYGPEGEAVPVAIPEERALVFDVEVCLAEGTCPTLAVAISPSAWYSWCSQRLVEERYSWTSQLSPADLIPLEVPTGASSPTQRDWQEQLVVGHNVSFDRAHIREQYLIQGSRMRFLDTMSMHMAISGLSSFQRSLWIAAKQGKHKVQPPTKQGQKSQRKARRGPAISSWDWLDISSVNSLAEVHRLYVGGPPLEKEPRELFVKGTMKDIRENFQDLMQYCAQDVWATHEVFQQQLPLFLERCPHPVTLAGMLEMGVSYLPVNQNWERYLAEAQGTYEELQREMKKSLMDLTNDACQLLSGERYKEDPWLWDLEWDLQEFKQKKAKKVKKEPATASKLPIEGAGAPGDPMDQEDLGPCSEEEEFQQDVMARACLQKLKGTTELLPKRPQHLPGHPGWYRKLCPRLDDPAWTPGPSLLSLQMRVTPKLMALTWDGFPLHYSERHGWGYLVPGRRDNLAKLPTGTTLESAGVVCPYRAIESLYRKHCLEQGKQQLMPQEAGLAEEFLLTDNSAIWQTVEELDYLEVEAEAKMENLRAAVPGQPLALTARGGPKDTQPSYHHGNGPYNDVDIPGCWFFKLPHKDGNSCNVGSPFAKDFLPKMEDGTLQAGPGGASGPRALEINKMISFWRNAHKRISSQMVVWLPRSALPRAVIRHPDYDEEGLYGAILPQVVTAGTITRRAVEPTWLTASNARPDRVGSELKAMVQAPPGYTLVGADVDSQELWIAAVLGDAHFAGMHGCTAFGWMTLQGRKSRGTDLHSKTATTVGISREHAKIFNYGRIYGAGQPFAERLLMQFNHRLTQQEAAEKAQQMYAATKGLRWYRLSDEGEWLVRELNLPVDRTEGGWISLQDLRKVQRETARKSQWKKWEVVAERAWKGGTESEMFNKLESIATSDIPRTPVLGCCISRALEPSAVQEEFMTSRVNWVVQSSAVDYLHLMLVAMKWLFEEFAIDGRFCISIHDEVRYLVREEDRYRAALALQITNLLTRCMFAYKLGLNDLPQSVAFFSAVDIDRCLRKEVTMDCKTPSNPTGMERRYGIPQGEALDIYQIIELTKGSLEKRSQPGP
T1 sequence (Q9UHN1 1-485 partner): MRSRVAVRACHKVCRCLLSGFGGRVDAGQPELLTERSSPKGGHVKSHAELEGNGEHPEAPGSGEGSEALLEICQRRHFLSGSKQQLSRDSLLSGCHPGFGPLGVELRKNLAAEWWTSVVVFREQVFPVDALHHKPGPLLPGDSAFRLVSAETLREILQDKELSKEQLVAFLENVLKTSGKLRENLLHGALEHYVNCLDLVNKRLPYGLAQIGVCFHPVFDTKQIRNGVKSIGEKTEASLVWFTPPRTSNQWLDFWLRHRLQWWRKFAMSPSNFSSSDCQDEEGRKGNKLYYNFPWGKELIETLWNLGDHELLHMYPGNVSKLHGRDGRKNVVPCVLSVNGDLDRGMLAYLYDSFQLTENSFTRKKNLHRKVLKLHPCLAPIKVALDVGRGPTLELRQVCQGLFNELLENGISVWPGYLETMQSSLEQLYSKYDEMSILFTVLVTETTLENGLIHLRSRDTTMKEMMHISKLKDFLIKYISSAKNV
Method: DNA Polymerization Assay to Monitor Effects on Human Wildtype POLγ and Four Disease-Causing Mutant Variants of Human POLγ.
The ability of small molecules to stimulate the polymerase activity of POLγ was analyzed in a quantitative fluorescence SYBR Green I assay with fluorescence intensity (FI) readout.
In the presence of dNTPs, wild type human POLγ and mutant derivatives thereof were incubated with single-stranded, circular M13mp18 ssDNA hybridized to a short DNA oligonucleotide that functions as a primer for initiation of DNA synthesis. POLγ and mutant derivatives thereof will extend the primer and use the M13mp18 molecule as a template to synthesize long stretches of double-stranded DNA. SYBR Green I, which is a double-stranded DNA-binding dye, was used to quantify formation of double-stranded DNA in the reaction. When bound to double-stranded DNA, SYBR Green I fluorescence increases by up to 100-fold.
The assay was performed in the 384-well plate format. Upon addition of compounds, changes in double-stranded DNA synthesis activity can be monitored by following effects on fluorescent intensity.
The reactions also contained the accessory POLγB subunit, and the human mitochondrial single-stranded DNA binding protein (mtSSB).
The DNA template mixture used in the assay contained 0.5 nM primed M13 mp18 ssDNA, 400 nM mtSSB, 0.1 mM Tris-HCl (pH 8.0), 0.1 mM dNTP, 10 mM MgCl2, 0.1 mg/mL BSA, 1 mM TCEP solution, and 0.02% Triton X-100. The DNA template mixture for the wild type protein contained either 100 μM dNTP, 1 μM dNTP, or 0.1 μM dNTP, designated in Table 2 as 100 μM, 1 μM, and 0.1 μM, respectfully.
Microplates with compounds (0.1 μL in each well) to be tested in the assay were prepared from 10 mM compound stocks in 100% DMSO, and equal amounts of DMSO without any compound were added to positive and negative control wells.
The protein mixture was dispensed (5 μL into each well) into compound plates and incubated at 37° C. for 15 minutes. After incubation, 5 μL of the DNA template mixture was dispensed into each well. The plates were then incubated at 37° C. for 2 hours.
During incubation, a combined stop buffer and detection reagent solution was prepared. The buffer contained 25 mM EDTA (pH 8.0), 0.02% Triton X-100, and SYBR Green I [Invitrogen] diluted 10,000× (for fluorescent readout). EDTA will stop the enzymatic reaction by chelating magnesium ions.

| AC50 [µM] | Structure (SMILES) |
| --- | --- |
| > 100 | Cc1cc(S(=O)(=O)Nc2noc(-c3ccccc3)n2)c(C)cc1Cl [Example 142, 4-chloro-2,5-dimethyl-N-(5-phenyl-1,2,4-oxadiazol-3-yl)benzenesulfonamide] |

same assay, conditions: stimulation of polymerase activity, primed M13mp18 ssDNA, 37° C. 2 hours; read-out: A467T AC50

| Structure (SMILES) | AC50 [µM] |
| --- | --- |
| O=S(=O)(Nc1csc(-c2ccccc2)n1)c1ccc(F)c(F)c1 [Example 122, 3,4-difluoro-N-(2-phenylthiazol-4-yl)benzenesulfonamide] | > 100 |
| Cc1ccc(S(=O)(=O)Nc2csc(-c3ccccc3)n2)c(C)c1 [Example 123, 2,4-dimethyl-N-(2-phenylthiazol-4-yl)benzenesulfonamide] | > 100 |
| Cc1cc(F)ccc1S(=O)(=O)Nc1csc(-c2ccccc2)n1 [Example 124, 4-fluoro-2-methyl-N-(2-phenylthiazol-4-yl)benzenesulfonamide] | > 100 |
| O=S(=O)(Nc1csc(-c2ccccc2)n1)c1ccccc1Cl [Example 125, 2-chloro-N-(2-phenylthiazol-4-yl)benzenesulfonamide] | 8 |
| O=S(=O)(Nc1csc(-c2ccccc2)n1)c1ccc(F)cc1Cl [Example 126, 2-chloro-4-fluoro-N-(2-phenylthiazol-4-yl)benzenesulfonamide] | 32 |
| O=S(=O)(Nc1csc(-c2ccccc2)n1)c1ccc(C(F)(F)F)cc1 [Example 127, N-(2-phenylthiazol-4-yl)-4-(trifluoromethyl)benzenesulfonamide] | > 100 |
| O=S(=O)(Nc1csc(-c2ccccc2)n1)c1cccc2nccnc12 [Example 128, N-(2-phenylthiazol-4-yl)quinoxaline-5-sulfonamide] | > 100 |
| Cc1cc(S(=O)(=O)N[C@H]2CCCN(C(=O)c3ccccc3)C2)c(C)cc1Cl [Example 129, (S)-N-(1-benzoylpiperidin-3-yl)-4-chloro-2,5-dimethylbenzenesulfonamide] | > 100 |
| Cc1cc(S(=O)(=O)N[C@H]2CCCN(C(=O)N3CCCC3)C2)c(C)cc1Cl [Example 130, (S)-4-chloro-2,5-dimethyl-N-(1-(pyrrolidinee-1-carbonyl)piperidin-3-yl)benzenesulfonamide] | > 100 |
| Cc1cc(S(=O)(=O)Nc2nsc(-c3ccccc3)n2)c(C)cc1Cl [Example 131, 4-chloro-2,5-dimethyl-N-(5-phenyl-1,2,4-thiadiazol-3-yl)benzenesulfonamide] | > 100 |
| Cc1cc(S(=O)(=O)Nc2nc(-c3ccccc3)ns2)c(C)cc1Cl [Example 132, 4-chloro-2,5-dimethyl-N-(3-phenyl-1,2,4-thiadiazol-5-yl)benzenesulfonamide] | > 100 |
| Cc1cc(S(=O)(=O)Nc2cccc(C(=O)N3CCC[C@@H]3C)c2)c(C)cc1Cl [Example 133, (S)-4-chloro-2,5-dimethyl-N-(3-(2-methylpyrrolidine-1-carbonyl)phenyl)benzenesulfonamide] | > 100 |
| Cc1ccc(C)c(S(=O)(=O)Nc2csc(-c3ccccc3)n2)c1 [Example 134, 2,5-dimethyl-N-(2-phenylthiazol-4-yl)benzenesulfonamide] | 3 |
| Cc1cc(Cl)ccc1S(=O)(=O)Nc1csc(-c2ccccc2)n1 [Example 135, 4-chloro-2-methyl-N-(2-phenylthiazol-4-yl)benzenesulfonamide] | 32 |
| Cc1cc(S(=O)(=O)Nc2csc(-c3ccccc3)n2)c(Cl)cc1F [Example 136, 2-chloro-4-fluoro-5-methyl-N-(2-phenylthiazol-4-yl)benzenesulfonamide] | 5 |
| O=S(=O)(Nc1csc(-c2ccccc2)n1)c1ccc2ncsc2c1 [Example 137, N-(2-phenylthiazol-4-yl)benzo[d]thiazole-6-sulfonamide] | > 100 |
| O=S(=O)(Nc1csc(-c2ccccc2)n1)c1ccc(Cl)cc1Cl [Example 138, 2,4-dichloro-N-(2-phenylthiazol-4-yl)benzenesulfonamide] | > 100 |

The remaining lines, values ahead:

| AC50 [µM] | Structure (SMILES) |
| --- | --- |
| > 100 | O=S(=O)(Nc1csc(-c2ccccc2)n1)c1ccccn1 [Example 139, N-(2-phenylthiazol-4-yl)pyridine-2-sulfonamide] |
| > 100 | O=S(=O)(Nc1csc(-c2ccccc2)n1)c1ccc(F)cc1F [Example 140, 2,4-difluoro-N-(2-phenylthiazol-4-yl)benzenesulfonamide] |
| > 100 | O=S(=O)(Nc1csc(-c2ccccc2)n1)c1ccc(C(F)(F)F)cc1F [Example 141, 2-fluoro-N-(2-phenylthiazol-4-yl)-4-(trifluoromethyl)benzenesulfonamide] |
| > 100 | Cc1cc(S(=O)(=O)Nc2nc(-c3ccccc3)no2)c(C)cc1Cl [Example 143, 4-chloro-2,5-dimethyl-N-(3-phenyl-1,2,4-oxadiazol-5-yl)benzenesulfonamide] |
| > 100 | Cc1cc(S(=O)(=O)Nc2cccc(C(=O)N3CCC[C@H]3CO)c2)c(C)cc1Cl [Example 145, (S)-4-chloro-N-(3-(2-(hydroxymethyl)pyrrolidine-1-carbonyl)phenyl)-2,5-dimethylbenzenesulfonamide] |
| > 100 | Cc1cc(S(=O)(=O)Nc2csc(-c3ccccc3)n2)c(F)cc1Cl [Example 146, 4-chloro-2-fluoro-5-methyl-N-(2-phenylthiazol-4-yl)benzenesulfonamide] |
| > 100 | O=S(=O)(Nc1csc(-c2ccccc2)n1)c1ccccc1 [Example 147, N-(2-phenylthiazol-4-yl)benzenesulfonamide] |
| > 100 | Cc1cc(S(=O)(=O)Nc2csc(-c3ccccc3)n2)ccc1Cl [Example 148, 4-chloro-3-methyl-N-(2-phenylthiazol-4-yl)benzenesulfonamide] |
| > 100 | Cc1cc(S(=O)(=O)N[C@@H]2CCCN(c3ccccc3)C2)c(C)cc1Cl [Example 149, (R)-4-chloro-2,5-dimethyl-N-(1-phenylpiperidin-3-yl)benzenesulfonamide] |
